Earlier results in paper PMC8260592 (Scientific Reports, 2021).
≈ marks a conversion by molar mass, not a printed value. Where two headings read alike, the source gives them in different places.

Columns and labels:
AChE = conditions: cited from earlier work
MAO-B = conditions: ref 22; cited from earlier work

## COc1cc(C[C@H](C)[C@H](C)Cc2ccc3c(c2)OCO3)ccc1O [macelignan]
AChE; ref 22
  IC50: 4.16 µM
MAO-B
  IC50: 7.42 µM

## COc1cc2oc(-c3ccc(O)cc3)cc(=O)c2c(O)c1[C@@H]1O[C@H](CO)[C@@H](O)[C@H](O)[C@H]1O [swertisin, isovitexin-7-O-methyl ether]
AChE; converted from µg/mL
  IC50: 71.9 µM
AChE; ref 49
  IC50 AChE: 32.09 µg/mL (≈ 71.9 µM)

## O=C(/C=C/c1ccc(O)cc1)OC[C@H]1O[C@@H](Oc2c(-c3ccc(O)cc3)oc3cc(O)cc(O)c3c2=O)[C@H](O)[C@@H](O)[C@@H]1O [tiliroside]
AChE; ref 50
  IC50: 23.5 µM

## Oc1ccc([C@H]2c3c(O)cc(O)cc3[C@H]3c4c(cc(O)cc4[C@@H]2c2cc(/C=C/c4cc(O)cc5c4[C@H](c4cc(O)cc(O)c4)[C@@H](c4ccc(O)cc4)O5)ccc2O)O[C@@H]3c2ccc(O)cc2)cc1 [vitisin A]
AChE; ref 56
  IC50: 1.04 µM

## COc1c(O)cc2oc3cc(O)c(CC=C(C)C)c(O)c3c(=O)c2c1CC=C(C)C [α-mangostin]
AChE; ref 53
  IC50: 2.48 µM
AChE; ref 54
  IC50: 6.3 µM

## heyneanol A
AChE; ref 56
  IC50: 1.66 µM
